Values of other authors in patent US20200261395A1, “METHOD FOR TREATMENT OF ROSACEA” (Sol-Gel Technologies Ltd., priority 2019, published 2020).

Test system: rosacea lesions
Settings: BPO as sole active agent

SMILES: O=C(OOC(=O)c1ccccc1)c1ccccc1 [BPO, Benzoyl peroxide]
- Response of rosacea lesions: unresponsive
